Key:
[1] = Determination of the surface tension; assay type: physicochemical; conditions: 25° C.; UV absorber concentrations from about 1 mg/l to 5,000 mg/l
Method: The surface tension (ST) of the UV absorbers 1C and 1F was determined at 25° C. at concentrations of the UV absorber of from about 1 mg/l to 5,000 mg/l (Table 4). The ST of water to air is, for comparison, 72.4 mN/m, the ST of commercial surfactants is about 30-35 mN/m. […] It was also shown that UV absorbers according to the invention are similar in surface activity to commercial surfactants.

[2] = UV-stabilizing effect: residual metaflumizone after exposure to light (Atlas Suntest), HPLC; assay type: physicochemical; conditions: dried film; for Residual metaflumizone content (%) after 1 day: continuous light 1 day; for Residual metaflumizone content (%) after 1 week: continuous light seven days
Method: UV-Stabilizing Effect A formulation comprising 100 g/l of metaflumizone and 40 g/l of UV absorber was prepared as described in Example 2. The formulation was diluted with water such that an active content of 10 g/l (Table 3) or 1 g/l (Table 4) was obtained.
About 20 mg of the formulation thus prepared were placed on a microscope slide, allowed to dry for 30 minutes and then exposed to light for one or seven days continuously (Atlas Suntest CRT plus, “Outdoor” setting, irradiation corresponds to the same spectrum and intensity as normal sunlight at midday in summer). After the exposure time, the samples were dissolved in dimethyl sulfoxide. The residual level of metaflumizone was determined by means of quantitative HPLC (column: BEH C18 1.7 μm 2.1×100; elution with a gradient of acetonitrile/0.1% H3PO4 rising from 5/95:95/5). For comparison, each exposure series run included a sample without UV absorber (reference). Evaluation: 2 samples were treated as blank samples by immediately redissolving them after drying, without exposure to light, and determining the metaflumizone content. The resulting mean was set equal to 100% and the remaining samples were standardized against that.
A commercial formulation of metaflumizone (Alverde®) comprising 240 g/l of metaflumizone was diluted with water to an active content of 10 g/l. Various UV absorbers were added (Table 5) and analyzed as described under Example 4A.

[3] = Alverde® diluted to 10 g/l metaflumizone, UV absorber added
[4] = formulation 100 g/l metaflumizone + 40 g/l UV absorber diluted to 1 g/l metaflumizone
[5] = formulation 100 g/l metaflumizone + 40 g/l UV absorber diluted to 10 g/l metaflumizone

| Compound | ST (surface tension) [1] [mN/m] | Residual metaflumizone content (%) after 1 day [2, 3] [%] | Residual metaflumizone content (%) after 1 week [2, 3] [%] | Residual metaflumizone content (%) after 1 day [2, 4] [%] | Residual metaflumizone content (%) after 1 week [2, 4] [%] | Residual metaflumizone content (%) after 1 day [2, 5] [%] | Residual metaflumizone content (%) after 1 week [2, 5] [%] |
| --- | --- | --- | --- | --- | --- | --- | --- |
| p-Aminobenzoic acid ethoxylate (45) [Uvinul ® P25] | 56.9 |  |  |  |  |  |  |
| 3-(3-benzotriazol-2-yl-5-tert-butyl-4-hydroxyphenyl)propionic acid [tridecanol-EO18]ester [Example 1F] | 34.7 |  |  |  |  |  |  |
| COCCOCCOCCOCCOCCOCCOCCOC(=O)CCc1cc(-n2nc3ccc(Cl)cc3n2)c(O)c(C(C)(C)C)c1 [Example 1J, 2-(5-chloro-2H-benzotriazol-2-yl)-6-tert-butyl-4-hydroxyphenylpropionic acid [Pluriol A350E]ester] |  | 46 | 30 |  |  |  |  |
| COCCOCCOCCOCCOCCOCCOCCOC(=O)CCc1cc(-n2nc3ccccc3n2)c(O)c(C(C)(C)C)c1 [Example 1C, 3-(3-benzotriazol-2-yl-5-tert-butyl-4-hydroxyphenyl)propionic acid [Pluriol A350E]ester] | 39.5 | 34 | 1 | 45 | 16 | 89 | 55 |
